According to ChEMBL document CHEMBL1134391, “Design, synthesis, and structural analysis of influenza neuraminidase inhibitors containing pyrrolidine cores” (J Med Chem, 2001):

Key:
influenza virus b [1] = test: Inhibitory activity was determined against Neuraminidase B/Memphis at 1 mM concentration
Neuraminidase = Neuraminidase (Influenza B virus (strain B/Lee/1940), UniProt P03474); test: Inhibitory activity was determined against Neuraminidase B/Memphis
influenza virus b [2] = test: Inhibitory activity was determined against Neuraminidase B/Memphis at 0.5 mM concentration

Chain of Neuraminidase (P03474 whole entry): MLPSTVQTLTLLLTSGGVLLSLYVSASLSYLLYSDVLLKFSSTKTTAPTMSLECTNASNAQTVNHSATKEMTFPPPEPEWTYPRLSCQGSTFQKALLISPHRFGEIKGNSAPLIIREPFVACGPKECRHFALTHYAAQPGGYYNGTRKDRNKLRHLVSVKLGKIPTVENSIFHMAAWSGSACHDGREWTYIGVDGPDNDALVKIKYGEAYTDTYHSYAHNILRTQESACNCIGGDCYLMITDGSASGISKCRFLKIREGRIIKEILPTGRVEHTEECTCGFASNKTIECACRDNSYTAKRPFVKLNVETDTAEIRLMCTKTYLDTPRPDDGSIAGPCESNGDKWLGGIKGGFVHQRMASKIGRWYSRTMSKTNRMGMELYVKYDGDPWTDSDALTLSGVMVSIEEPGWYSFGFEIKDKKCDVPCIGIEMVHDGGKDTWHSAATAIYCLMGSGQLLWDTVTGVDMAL

| Structure (SMILES) | IC50 (Neuraminidase) | also measured |
| --- | --- | --- |
| CCC(=O)NC[C@H]1[C@H](N)[C@H](C(=O)O)CN1C(=O)N(CC)C(C)C |  | inhibition (influenza virus b [1]): 26% |
| CCN(C(=O)N1C[C@@H](C(=O)O)[C@@H](N)[C@@H]1CNC(C)=O)C(C)C | 340 µM |  |
| CCN(C(=O)N1C[C@@H](C(=O)O)[C@@H](N)[C@@H]1CNC(=O)C(F)(F)F)C(C)C [A-192558] | 8 µM |  |
| CCN(C(=O)N1C[C@@H](C(=O)O)[C@@H](N)[C@@H]1CNS(C)(=O)=O)C(C)C |  | inhibition (influenza virus b [2]): 38% |
